Test results published in US5629406A, “Inhibitors of HIV protease” (Sankyo Company, Limited, priority 1992, dated 1997).
Converted amounts (≈) assume the structure as drawn. Counter-ions that a name gives are not always drawn. Like-named read-outs stand apart in the source and are kept apart here.

Tests used:
HIV pol protease = HIV pol protease (Human immunodeficiency virus type 1 group M subtype B, UniProt P03366); test: Assay of the inhibition of HIV pol protease (synthetic substrate TE-2, HPLC of TE-3)
Description: The Ki, that is the dissociation constant of the enzyme-inhibitor complex, measured according to the equation [formula]
A reaction mixture containing 1 mM or 1.5 mM of the substrate TE-2, having the structure described in European Patent Publication No. 498,680, 1 μl of the desired concentration of the compound to be tested (dissolved in dimethyl sulfoxide comprising 20% v/v water), 2 μl of the enzyme solution prepared as described in step (c), above, and buffer solution [50 mM tris HCl (pH 6.0), 0.25M sodium chloride, 0.1 mM ethylenediaminetetraacetic acid, 0.1 mM Triton X-100] to form 10 μl in total, was incubated for 30 minutes at 37° C.
The reaction was Stopped by the addition of 250 μl of a 0.1% w/v solution of aqueous trifluoroacetic acid and 10% v/v acetonitrile. The reaction mixture was then subjected to Sep-pak light™ chromatography (Waters Co., Milford, Mass., USA), and the fractions passing through the column were collected.
The substrate TE-2 is decomposed by the HIV protease to form a shortened peptide of four amino acids, (TE-3; having the structure described in European Patent Publication No. 498,680). The amount of TE-3 formed was assayed quantitatively using a high performance liquid chromatography (HPLC) column [ODS-120T (Trade Mark), 4.6 mm in inner diameter ×250 mm, To-So Co.] using a mixture of 9% acetonitrile-0.05% trifluoroacetic acid as the eluting solvent.
The Ki in nM was calculated according to the method of Michaelis-Menten using the equation given above.

Molt 4/HTLV IIIB = test: Inhibition of the release of virus from Molt 4 cells chronically infected with HIV; format: cell-based, HIV (HTLVIIIB)
Description: Inhibition of the Release of Virus from Molt 4 Cells Chronically Infected with HIV (Molt 4/HTLV IIIB)
A Molt 4 cell line chronically infected with HIV, that is with HTLVIIIB, was established (Molt 4/HTLVIIIB). The cells were washed twice with growth medium (RPMI-1640 medium containing 10% v/v heat-inactivated fetal calf serum). The washed cells were then inoculated into growth medium at a density of 2×10^5 cells/ml, in the presence of selected concentrations of test compounds, at 37° C., and cultured under an atmosphere of 5% carbon dioxide.
After 48 hours, the test cultures were spun down at 1000×g for 3 minutes, and the supernatant was collected. Polyethylene glycol 6000 was added to the supernatant to a final concentration of 10% w/v, and the resulting solution was left to stand for 6 hours on ice. Virions precipitated by this procedure were subsequently obtained as a pellet by centrifuging the treated supernatants for 30 minutes at 10000×g. The amount of HIV antigen in the pellets was then determined using a commercial enzyme immunoassay (EIA) system [HIV antigen EIA kit, available from Abbot].
IC50 (the minimum concentration of test compound sufficient to reduce the amount of HIV antigen production by 50%, as determined by the EIA system) was used as a measure of anti-HIV activity.

Compound	Ki (HIV pol protease)	further results
CNc1ccc(OCC(=O)N[C@@H](CC(N)=O)C(=O)N[C@@H](Cc2ccccc2)[C@H](O)C(=O)N2CCC[C@H]2C(=O)NC(C)(C)C)cc1 [Example 20, 1-[(2S,3S)-3-{N^2-[4-(Methylamino)phenoxyacetyl]-L-asparaginyl}amino-2-hydroxy-4-phenylbutyryl]-N-t-butyl-L-prolinamide hydrochloride]	49 nM	
CN(C)c1ccc(OCC(=O)N[C@@H](CC(N)=O)C(=O)N[C@@H](Cc2ccccc2)[C@H](O)C(=O)N2CCC[C@H]2C(=O)NC(C)(C)C)cc1 [Example 21, 1-[(2S,3S)-3-{N^2-[4-(N,N-Dimethylamino)phenoxyacetyl]-L-asparaginyl}amino-2-hydroxy-4-phenylbutyryl]-N-t-butyl-L-prolinamide]	37 nM	
CC(C)(C)NC(=O)[C@@H]1CCCN1C(=O)[C@@H](O)[C@H](Cc1ccccc1)NC(=O)[C@H](CC(N)=O)NC(=O)COc1ccc(N)cc1 [Example 17, 1-{(2S,3S)-3-[N^2-(4-Aminophenoxyacetyl)-L-asparaginyl)amino-2-hydroxy-4-phenylbutyryl]-N-t-butyl-L-prolinamide hydrochloride]	18.5 nM	
CC(C)(C)NC(=O)[C@@H]1C[C@H](Cl)CN1C(=O)[C@@H](O)[C@H](Cc1ccccc1)NC(=O)[C@H](CC(N)=O)NC(=O)c1cnc2ccccc2n1 [Example 14, (4S)-1-{(2S,3S)-3-[N^2-(2-Quinoxalinecarbonyl)-L-asparaginyl]amino-2-hydroxy-4-phenylbutyryl}-N-t-butyl-4-chloro-L-prolinamide]	4.7 nM	IC50 (Molt 4/HTLV IIIB; Human immunodeficiency virus 1, IIIB, MOLT-4, 48 h, read-out: IC50 (concentration reducing HIV antigen production by 50%)): 0.39 µg/mL (≈ 0.598 µM)
CC(C)(C)NC(=O)[C@@H]1CCCN1C(=O)[C@@H](O)[C@H](Cc1ccccc1)NC(=O)[C@H](CC(N)=O)NC(=O)COc1ccc(NC(=O)OCc2ccccc2)cc1 [Example 16, 1-[(2S,3S)-3-{N^2-[4-(Benzyloxycarbonylamino)phenoxyacetyl]-L-asparaginyl}amino-2-hydroxy-4-phenylbutyryl]-N-t-butyl-L-prolinamide]	14 nM	
CC(C)(C)NC(=O)[C@@H]1C[C@@H]2CCCC[C@@H]2CN1C[C@@H](O)[C@H](Cc1ccccc1)NC(=O)[C@H](CC(N)=O)NC(=O)c1ccc2ccccc2n1 [Ro31-8959, 3-t-butylaminocarbonyl-2-{(2R, 3S)-3-[(N-2'-quinolinecarbonyl-L-asparaginyl)amino]-2-hydroxy-4-phenylbutyl}-(3S, 4aS, 8aS)-decahydroisoquinoline, reference compound]		IC50 (concentration reducing HIV antigen production by 50%) (Molt 4/HTLV IIIB; Molt 4/HTLVIIIB cells, 48 hours, HIV antigen in precipitated virions by EIA): > 20.0 µg/mL; Ki (HIV pol protease; 1 mM or 1.5 mM substrate TE-2, pH 6.0, 30 minutes at 37° C., calculated by Michaelis-Menten): 58 nM
CC(C)(C)NC(=O)[C@@H]1C[C@@H](O)CN1C(=O)[C@@H](O)[C@H](Cc1ccccc1)NC(=O)[C@H](CC(N)=O)NC(=O)OCc1ccccc1 [Example 4, (4R)-1-[(2S,3S)-3-(N^2 -Benzyloxycarbonyl-L-asparaginyl)amino-2-hydroxy-4-phenylbutyryl]-N-t-butyl-4-hydroxy-L-prolinamide]	56 nM	
CC(C)(C)NC(=O)[C@@H]1CCCN1C(=O)[C@@H](O)[C@H](Cc1ccccc1)NC(=O)[C@H](CC(N)=O)NC(=O)COc1ccc(NC(=O)CN)cc1 [Example 18, 1-[(2S,3S)-3-{N^2-[4-(Glycylamino)phenoxyacetyl]-L-asparaginyl}amino-2-hydroxy-4-phenylbutyryl]-N-t-butyl-L-prolinamide hydrochloride]	30 nM	
CC(C)(C)NC(=O)[C@@H]1C[C@H](Cl)CN1C(=O)[C@@H](O)[C@H](Cc1ccccc1)NC(=O)[C@H](CC(N)=O)NC(=O)OCc1ccccc1 [Example 1, (4S)-1-[(2S,3S)-3-(N^2 -Benzyloxycarbonyl-L-asparaginyl)amino-2-hydroxy-4-phenylbutyryl]-N-t-butyl-4-chloro-L-prolinamide]	8 nM	
